Experimental data reported in patent US10123985B2, “Therapeutic strategies for treating mitochondrial disorders” (Whitehead Institute for Biomedical Research, priority 2015, dated 2018).
“Also recorded” adds a separate entry of the source.

Tests used:
[1] = tested on: ETC-defective cybrid cells; test: [U-13C]-L-glutamine isotope tracing of aspartate in cybrid cells; type: cell-based; conditions: [U-13C]-L-glutamine 7 hours, pyruvate (1 mM)
Experimental: FIG. 19. […] Cell line models of ETC dysfunction were cultured in RPMI (supplemented with uridine) with pyruvate (1 mM) or aspartate (10 mM) for 6 days. Relative cell number was determined by normalizing to the pyruvate-supplemented condition. Representative bright-field micrographs of MERRF, CYTB, and 143B ρ0 cells after 6 days in indicated conditions (right) (mean±SD, n=3, **p<0.05). […] Mass isotopomer analysis of aspartate in wild type, phenformin-treated wild type, and ETC-defective cybrid cells cultured for 7 hours with [U-^13C]-L-glutamine (middle) in the presence or absence of pyruvate (1 mM). The fraction of labeled aspartate from [U-^13C]-L-glutamine is indicated (mean±SD, for n=3, **p<0.05) (bottom). OAA, oxaloacetate. […] Immunoblot analysis of wild type, MERRF, and CYTB cybrid cells expressing sgControl and sgGOT1 (top). Raptor was used as a loading control. […] Relative cell number was determined by normalizing to sgControl expressing cell line (mean±SD, for n=3, **p<0.05). […]
Polar metabolites were extracted using 1 ml of ice-cold 80% methanol with 10 ng/ml valine-d8 as an internal standard. […] Relative quantitation of polar metabolites was performed with XCalibur QuanBrowser 2.2 (Thermo Fisher Scientific) using a 5 ppm mass tolerance and referencing an in-house library of chemical standards.

[2] = tested on: Jurkat cells; test: NAD+ and NADH measurements in Jurkat cells; type: cell-based, human; conditions: wild type Jurkat cells, phenformin (10 μM), aspartate (10 mM)
Experimental: Measurement of NAD^+/NADH was done by modification of manufacturer instructions for NAD^+/NADH Glo Assay (Promega). Jurkat cells were incubated in RPMI under the conditions listed for 8 hours before cell extracts were taken. To extract NAD^+/NADH, cells were centrifuged for 1 minute at 300×g, and washed 3 times by quickly resuspending in 15 mL PBS and centrifuging for 1 minute at 300×g. Pelleted samples were extracted in 100 μL ice cold lysis buffer (1% Dodecyltrimethylammonium bromide (DTAB) in 0.2 N NaOH diluted 1:1 with PBS) and frozen at −80° C. To measure NADH, 20 μL of extracts were heated to 75° C. for 30 min in the basic lysis buffer to degrade NAD^+. To measure NAD^+, samples were diluted 1:1 with 0.4 N HCl and incubated at 60° C. for 15 min where acidic conditions will degrade NADH. Following incubations, samples were quenched by adding 20 μL of 0.25 M Tris, 0.2 N HCl (NADH) or 20 μL of 0.5 M Tris base (NAD^+). Manufacturer instructions were then followed to measure NAD^+/NADH.

Compound | Aspartate synthesis in ETC-defective cybrid cells [1] | NAD+/NADH ratio in cells with ETC inhibition [2]
CC(=O)C(=O)O [pyruvate] | stimulated aspartate synthesis in the ETC-defective cells; also recorded: stimulates aspartate biosynthesis in cybrid cells with ETC dysfunction | –
N[C@@H](CC(=O)O)C(=O)O [aspartate] | – | did not restore the NAD/NADH ratio in cells with ETC inhibition; also recorded: does not increase the NAD^+/NADH ratio in cells with ETC inhibition
